The source of these data is patent US20250177467A1, “COMPOSITIONS AND METHODS FOR MODULATING NUCLEAR FACTOR OF ACTIVATED T-CELLS (NFAT) ACTIVITY OF T CELLS” (Yale University, priority 2022, published 2025).

In experiment [1] the test system is Lck, Fyn, Zap70, LAT and Pyk2. The experiment is described as follows: Western blot of protein phosphorylation of T cell receptor downstream cascades in Jurkat cells. It counts as cell-based. Particulars: 45 min. As to the method:
FIGS. 8A-8D are western blot analyses showing effects of YIV-906 (FIG. 8A), single herbs (FIG. 8A), the fractions of YIV-906 (FIG. 8B), P (FIG. 8C), and S (FIG. 8D) on protein phosphorylation of T cell receptor signaling cascades including, Lck, Fyn, Zap70, LAT and Pyk2. […] All eluted fractions were dried and reconstituted with water to equivalent concentration at 100 mg/ml. Jurkat cells were treated with YIV-906 (FIG. 8A), single herbs (FIG. 8A), the fractions of YIV-906 (FIG. 8B), P (FIG. 8C), and S (FIG. 8D) at equivalent dose 320 ug/ml for 45 min. Western blot analysis was used to determine the protein phosphorylation using specific antibodies. GAPDH was used to normalize the protein loading.
FIGS. 9A-9B show chemical identification of fractions of P (FIG. 9A) and S (FIG. 9B) after C18 column fractionation and their impacts on protein phosphorylation for Lck, Zap70, Lat, Fyn/Src, Pyk2. Equivalent concentration, 10 mg/ml, was used for LC-MS analysis. Equivalent concentration, 320 ug/ml for 45 min, was used for treating Jurkat cells for western blotting analysis. Identified chemicals (putative), based on their mass and mass of their fragments, were listed under each fraction. Non-identified chemical was not listed in this figure. Fraction could induce phosphorylation of specific protein was indicted as red upward arrow.
FIG. 10 show effects of S and P compounds on protein phosphorylation of T cell receptor signaling cascades including, Lck, Fyn, Zap70, LAT and Pyk2. Jurkat cells were treated with S and P compounds for 45 min. Western blot analysis was used to determine the protein phosphorylation using specific antibodies.
Jurkat-PD1 cells 10^6/ml were placed in 24 well plate treated with YIV-906 or its components herbs for 45 minutes. After spinning down the cells at 1000 g centrifugation for 10 min, red blood cells were lysed with 1 ml BD pharm lyse on ice. Cells were collected at 1000 g centrifugation for 10 min. 2×10^6 cells were used for each staining sample. The cells were prepared with 2X protein loading buffer (Tris pH 6.8 1M, SDS 1%, glycerol, B-mercaptoethanol, bromophenol blue, distilled water). The samples were then heated to 95° C. for 5 minutes to denature the proteins prior to western blot. SDS polyacrylamide gel electrophoresis (10% Mini-Protean TGX™ Precast Protein Gels, BioRad) was used to separate proteins according to their electrophoretic mobility. The protein extractions were deposited in the wells of the gel, 10 μL per well. The migration was performed in a 1X running buffer (Tris/Glycine/SDS) at 180 V for 50 minutes. The transfer of the proteins was performed on a PVDF membrane in the transfer buffer (Tris-CAPS AX, methanol, SDS 10%, distilled water) at 75 V for 1 hour. The non-specific binding sites on the PVDF membrane were blocked with a blocking solution (3% milk powder and 1X TBS-T) for 30 minutes. Then, the PVDF membrane was incubated with the primary antibody against the proteins of interest overnight at 4° C. The information of primary antibodies is as follows: P-Lck-Y394 (Biolegend, #933101), P-Zap70-Y319 (Cell signaling, #2717), P-LAT-Y191 (Cell signaling, #3584) P-SRC (Fyn) Y416 (Cell, signaling, #6943), P-Pyk2-Y402 (Cell signaling, 3291), GAPDH (Cell Signaling, #5174). […] Image-J was used to quantify the total intensity of immunoreactive bands. […]

For experiment [2], the target named is T1, SHP2 (Homo sapiens, UniProt Q06124).
T1 sequence (Q06124 1-593): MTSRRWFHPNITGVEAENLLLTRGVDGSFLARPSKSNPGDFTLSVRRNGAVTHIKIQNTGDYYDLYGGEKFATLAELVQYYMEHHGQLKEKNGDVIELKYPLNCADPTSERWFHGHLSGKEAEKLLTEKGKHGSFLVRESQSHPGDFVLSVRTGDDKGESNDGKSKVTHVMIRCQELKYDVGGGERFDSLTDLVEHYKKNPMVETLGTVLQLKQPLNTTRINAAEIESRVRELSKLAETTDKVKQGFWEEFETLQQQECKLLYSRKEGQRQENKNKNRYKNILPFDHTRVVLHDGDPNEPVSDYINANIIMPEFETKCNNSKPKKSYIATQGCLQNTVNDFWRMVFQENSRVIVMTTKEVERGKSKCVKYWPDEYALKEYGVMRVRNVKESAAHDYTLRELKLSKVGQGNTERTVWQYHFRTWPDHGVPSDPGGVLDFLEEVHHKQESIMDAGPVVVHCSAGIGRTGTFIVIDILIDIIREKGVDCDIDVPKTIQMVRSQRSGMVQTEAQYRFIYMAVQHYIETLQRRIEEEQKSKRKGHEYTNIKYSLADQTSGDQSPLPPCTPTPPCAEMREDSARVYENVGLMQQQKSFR
The experiment can be described thus: SHP2 activity, p-Nitrophenyl Phosphate (pNPP) colorimetric assay. To be noted: 40 uM. It counts as biochemical.

For experiment [3], the system named is NFAT mediated transcriptional activity of Jurkat cells. The experiment can be described thus: NFAT luciferase reporter in Jurkat(-PD1) cells co-cultured with wild type Raji or Raji-PD-L1 cells without or with SEE. It counts as cell-based. Particulars: for modulation effect on basal NFAT activity: absence of SEE, wild type Raji or PD-L1 over-expressed Raji cells; for inhibition on NFAT activity of Jurkat cells: presence of SEE; for modulation of basal NFAT activity: S compounds up to 40 uM; for inhibition of SEE triggered NFAT activity: at 20 to 40 uM, SEE 10 ng/ml.

The subject of experiment [4] is NFAT mediated transcriptional activity of Jurkat-PD1 TCRαβ knockout cells. The experiment can be described thus: NFAT luciferase reporter in TCRαβ knockout Jurkat-PD1 cells. It counts as cell-based. Background: A reporter such as luciferase makes a cellular process visible.
Experiment [5] concerns the target CD19 naturally expressed on the cell surface of Raji cells (UniProt P15391). The experiment can be described thus: cell-based or functional assay.
Where [6] appears, read: Jurkat-PD1 with wild type Raji or PD-L1 over-expressed Raji cells, without SEE.

Sequence of CD19 naturally expressed on the cell surface of Raji cells (P15391 20-556 limits assumed): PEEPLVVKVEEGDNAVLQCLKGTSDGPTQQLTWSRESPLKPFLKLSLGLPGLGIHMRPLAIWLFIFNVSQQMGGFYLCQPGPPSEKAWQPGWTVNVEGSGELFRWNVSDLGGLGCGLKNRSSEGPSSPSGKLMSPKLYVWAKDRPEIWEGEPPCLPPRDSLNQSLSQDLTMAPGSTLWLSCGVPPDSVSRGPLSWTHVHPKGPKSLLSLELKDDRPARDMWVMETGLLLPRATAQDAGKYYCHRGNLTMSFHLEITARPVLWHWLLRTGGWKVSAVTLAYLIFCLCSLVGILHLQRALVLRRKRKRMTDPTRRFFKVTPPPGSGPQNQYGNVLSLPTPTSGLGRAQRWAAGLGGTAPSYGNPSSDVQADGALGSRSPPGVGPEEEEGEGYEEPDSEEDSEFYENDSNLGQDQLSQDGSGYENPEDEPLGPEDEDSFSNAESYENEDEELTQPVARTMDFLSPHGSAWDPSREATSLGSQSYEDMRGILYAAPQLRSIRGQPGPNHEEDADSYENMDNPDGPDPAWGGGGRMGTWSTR

For the compound `C[C@]12C[C@@H](O)[C@@H]3C[C@@]1(O[C@@H]1O[C@H](CO)[C@@H](O)[C@H](O)[C@H]1O)[C@@]3(COC(=O)c1ccccc1)C(=O)O2` [Albiforin], the “inducing P-Zap70-Y319 and P-Pyk2-Y402” value in experiment [1] was “some effect”.

Consider `O=C(O)[C@H]1O[C@@H](Oc2cc3oc(-c4ccccc4)cc(=O)c3c(O)c2O)[C@H](O)[C@@H](O)[C@@H]1O` [Baicalin], for which, in experiment [1] (40 uM), the “induction effect on P-Zap70-Y319, P-SRC (Fyn)-Y416 and P-Pyk2-Y402” value is given as “some induction effect”. In experiment [2], the “inhibitory effect on SHP2, S compounds” value is recorded as “showed inhibitory effect on SHP2”.

Take `CC1(C)[C@@H](O[C@H]2O[C@H](C(=O)O)[C@@H](O)[C@H](O)[C@H]2O[C@@H]2O[C@H](C(=O)O)[C@@H](O)[C@H](O)[C@H]2O)CC[C@]2(C)[C@H]3C(=O)C=C4[C@@H]5C[C@@](C)(C(=O)O)CC[C@]5(C)CC[C@@]4(C)[C@]3(C)CC[C@@H]12` [Glycyrrhizic acid]: in experiment [2], the “inhibitory effect on SHP2, G compounds” value was “relatively higher inhibitory effects on SHP2 than other G compounds”.

`O=C(/C=C/c1ccc(O)cc1)c1ccc(O)cc1O` [Isoliquiritigenin]: in experiment [3] (10 uM), the “modulation effect on basal NFAT activity” value is “some modulation effect”. Besides, in experiment [3] (40 uM), the “inhibition on NFAT activity of Jurkat cells” value (from here on “inhibition on NFAT activity”) is reported as “showed inhibition on NFAT activity”.

Take `COc1ccc2c(c1O)-c1c(O)c(OC)cc3c1[C@H](C2)[N+](C)(C)CC3` [Magnoflorine]: the “inhibition on NFAT activity” value in experiment [3] (Z compound up to 40 uM) is on record as “showed inhibition on NFAT activity”.

`C[C@@]12C[C@@]3(O)O[C@@H](O1)[C@]1(COC(=O)c4ccccc4)[C@H]3C[C@@]12O[C@@H]1O[C@H](CO)[C@@H](O)[C@H](O)[C@H]1O` [Paeoniforin]: the “inducing P-Zap70-Y319 and P-Pyk2-Y402” value in experiment [1] is listed as “some effect”.

For `O=c1cc(-c2ccccc2)oc2cc(O)c(O)c(O)c12` [baicalein], the “modulation of basal NFAT activity” value in experiment [3] (setting [6]) is listed as “could modulate the basal NFAT activity”. The “inhibition of SEE triggered NFAT activity” value in experiment [3] is listed as “could inhibit SEE triggered NFAT activity”. The “impact on NFAT activity, Jurkat-PD1 versus Jurkat-PD1 TCRαβ KO cells” value in experiment [4] is on record as “very similar impact on NFAT activity”. For the same compound, the “induction of protein phosphorylation of all examined proteins (Lck, Zap70, LAT, Fyn, Pyk2)” value in experiment [1] (40 uM) was “could strongly induce protein phosphorylation of all examined proteins”. In experiment [2], the “inhibitory effect on SHP2, S compounds” value is “showed inhibitory effect on SHP2”.

As for `COc1c(CC=C(C)C)c(O)cc2oc(=O)c(-c3ccc(O)cc3O)cc12` [glycycoumarin], in experiment [3] (10 uM), the “modulation effect on basal NFAT activity” value was “some modulation effect”.

As for `CC1(C)[C@@H](O)CC[C@]2(C)[C@H]3C(=O)C=C4[C@@H]5C[C@@](C)(C(=O)O)CC[C@]5(C)CC[C@@]4(C)[C@]3(C)CC[C@@H]12` [glycyrrhetinic acid], the “inhibitory effect on SHP2, G compounds” value in experiment [2] was “relatively higher inhibitory effects on SHP2 than other G compounds”.

For `C=CC(C)(C)c1cc(/C=C/C(=O)c2ccc(O)cc2)c(OC)cc1O` [licochalcone A], in experiment [3] (40 uM), the “inhibition on NFAT activity” value is on record as “showed inhibition on NFAT activity”. Besides, the “modulation effect on basal NFAT activity” value in experiment [3] (10-20 uM) was “some modulation effect”.

As for `O=C1C[C@@H](c2ccc(O)cc2)Oc2cc(O)ccc21` [liquiritigenin], the “modulation effect on basal NFAT activity” value in experiment [3] (40 uM) was “some modulation effect”.

On to `O=C1C[C@@H](c2ccc(O[C@@H]3O[C@H](CO)[C@@H](O)[C@H](O)[C@H]3O)cc2)Oc2cc(O)ccc21` [liquiritin], for which, in experiment [3] (20 uM), the “modulation effect on basal NFAT activity” value is reported as “some modulation effect”.

`COc1c(O[C@@H]2O[C@H](C(=O)O)[C@@H](O)[C@H](O)[C@H]2O)cc2oc(-c3ccccc3)cc(=O)c2c1O` [oroxylin A 7-O-beta-D-glucuronide]: the “modulation of basal NFAT activity” value in experiment [3] (setting [6]) is “could modulate the basal NFAT activity”. For the same compound, the “dose required to achieve 2-fold activity of NFAT” value in experiment [3] (basal, without SEE, Jurkat-PD1 with wild type Raji or PD-L1 over-expressed Raji cells) was determined as 40 µM. The “impact on NFAT activity, Jurkat-PD1 versus Jurkat-PD1 TCRαβ KO cells” value in experiment [4] is “very similar impact on NFAT activity”. The “induction effect on P-Zap70-Y319, P-SRC (Fyn)-Y416 and P-Pyk2-Y402” value in experiment [1] (40 uM) is listed as “some induction effect”. In experiment [2], the “inhibitory effect on SHP2, S compounds” value is recorded as “showed inhibitory effect on SHP2”.

Consider `COc1c(O)cc2oc(-c3ccccc3)cc(=O)c2c1O` [oroxylin A], for which, in experiment [3] (setting [6]), the “modulation of basal NFAT activity” value is given as “could modulate the basal NFAT activity”. Also, in experiment [3], the “inhibition of SEE triggered NFAT activity” value is “could inhibit SEE triggered NFAT activity”. Also, in experiment [4], the “impact on NFAT activity, Jurkat-PD1 versus Jurkat-PD1 TCRαβ KO cells” value is on record as “very similar impact on NFAT activity”. In addition, the “inhibitory effect on SHP2, S compounds” value in experiment [2] was “showed inhibitory effect on SHP2”.

For `COc1c(O[C@@H]2O[C@H](C(=O)O)[C@@H](O)[C@H](O)[C@H]2O)cc(O)c2c(=O)cc(-c3ccccc3)oc12` [wogonoside], the “inhibitory effect on SHP2, S compounds” value in experiment [2] is “showed inhibitory effect on SHP2”.

As for “Anti-PD1: antibody produced from Nivolumab clone; InVivoSIM anti-human PD-1 (Nivolumab Biosimilar)”, in experiment [3] (Raji-PD-L1 cells, SEE 10 ng/ml or 30 ng/ml, YIV-906 160 ug/ml, nivolumab biosimilar 18 ug/ml), the “rescue of depressed NFAT activity (due to the interaction of PD1 and PD-L1) in Jurkat-PD1 cells” value was “rescued the depressed NFAT activity”.

For the compound “chimeric antigen receptor (CAR-CD19-CD3zeta) on Jurkat-PD1 NFAT-luc cells”, the NFAT activity of Jurkat-PD1 CAR-CD19 cells co-cultured with Raji (NFAT luciferase reporter) in experiment [5] was 40 fold.
